Reference: US9790221B2, “Heteroaryl compounds as IRAK inhibitors and uses thereof” (Merck Patent GmbH, priority 2014, dated 2017)

Columns and labels:
[1] = target: IRAK1 (His-TEV-IRAK1 (194-712)) (Homo sapiens (Human), UniProt P51617); experiment: IRAK1 enzymatic assay; assay type: biochemical
Experimental: IRAK1 is a human purified recombinant enzyme (His-TEV-IRAK1 (194-712)). In this assay, IRAK-1 hydrolyses ATP and autophosphorylates. Measurement of IRAK-1 inhibition was performed in streptavidin coated 384well FlashPlate (PerkinElmer #SMP410A).
His-TEV-IRAK-1 (15 ng/well), ATP (1 μM, [33P]ATP 0.25 μCi/well) and compounds in DMSO (range of concentrations from 20 µM to 1 nM) or controls (2% DMSO) were incubated for 3 hours at 30° C. in assay buffer: Hepes pH7.0 50 mM, Fatty acid-free BSA 0.1%, Dithiothreitol DTT 2 mM, MgCl2 10 mM, EGTA 0.5 mM, Triton-X-100 0.01%. Kinase reaction was stopped by addition of EDTA. Supernatant was discarded, plates were washed three times with 150 mM NaCl and radioactivity was then measured in a Microbeta Trilux reader.

IRAK4 = IRAK4 (Homo sapiens (Human), UniProt Q9NWZ3); experiment: IRAK4 enzymatic assay; assay type: biochemical
Sequence of IRAK4 (Q9NWZ3 whole entry): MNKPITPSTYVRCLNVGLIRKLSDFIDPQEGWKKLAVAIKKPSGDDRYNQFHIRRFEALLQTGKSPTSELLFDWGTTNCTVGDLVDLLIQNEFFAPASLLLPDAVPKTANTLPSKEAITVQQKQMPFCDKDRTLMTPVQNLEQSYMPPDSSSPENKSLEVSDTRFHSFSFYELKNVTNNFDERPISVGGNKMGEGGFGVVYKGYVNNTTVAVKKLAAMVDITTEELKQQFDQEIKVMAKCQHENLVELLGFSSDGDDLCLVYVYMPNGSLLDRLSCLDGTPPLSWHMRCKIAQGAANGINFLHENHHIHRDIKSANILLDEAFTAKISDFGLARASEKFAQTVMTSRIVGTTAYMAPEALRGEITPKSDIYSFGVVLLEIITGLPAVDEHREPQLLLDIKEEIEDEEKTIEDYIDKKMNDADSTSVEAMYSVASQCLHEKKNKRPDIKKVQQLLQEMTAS
Experimental: IRAK4 is a human purified recombinant enzyme ([…]. IRAK4 hydrolyses ATP, autophosphorylates and phosphorylates a Serine/Threonine generic peptidic substrate (STK: 61ST1BLC from CisBio International based in Bagnols/Cèze FR).
Measurement of IRAK-4 inhibition was performed in streptavidin coated 384well FlashPlate (PerkinElmer #SMP410A). His-TEV-IRAK4 (20 ng/well), ATP (2 μM, [^33P]ATP 0.25 µCi/well), STK1-biotin peptide (300 nM) and compounds in DMSO (range of concentrations from 20 µM to 1 nM) or controls (2% DMSO) were incubated for 3 hours at 30° C. in assay buffer: Hepes pH7.0 50 mM, Fatty acid-free BSA 0.1%, Dithiothreitol DTT 2 mM, MgCl2 10 mM, EGTA 0.5 mM, Tween-20 0.01%, MnCl2 5 mM.
Kinase reaction was stopped by addition of EDTA. Supernatant was discarded, plates were washed three times with 150 mM NaCl and radioactivity was then measured in a Microbeta Trilux reader.

[2] = test system: TLR7 induced IL-6 secretion in human mononuclear cells (PBMC's); experiment: TLR7 induced IL-6 in human PBMC's; assay type: cell-based; conditions: Homo sapiens, PBMC, read-out: TLR7 induced IL-6 secretion in hPBMC's (IC50)
Experimental: TLR7 Induced IL-6 in Human PBMC's
Human PBMC assay was used as one of the functional assay a to monitor the activity of IRAK1 and IRAK4 small molecule inhibitors on TLR7 induced IL-6 secretion in human mononuclear cells (PBMC's). Human PBMCs were prepared from buffy coats (whole blood enriched with leukocytes and platelets) obtained from healthy volunteers used either fresh or frozen are plated in assay media (RPMI+2% P/S/L-glu+10% HI-FBS) and pre-treated with compounds in DMSO/media (range of concentrations from 25 uM to 0.4 nM) or controls (0.25% DMSO) for 30 minutes at 37° C. in assay media. Following pre-treatment with IRAK1 and IRAK4 inhibitors, PBMC's were stimulated with TLR7 specific ligand (2 uM) overnight (16-18 hrs) at 37° C. After incubation supernatant was transferred to 384 well PE AlphaPlate-384 (6005350) and IL-6 is quantified using Perkin Elmer IL-6 Alpha LISA kit (AL223C). Plates were read on an Envision® plate reader with Alpha Technology®.

Sequence of IRAK1 (His-TEV-IRAK1 (194-712)) (P51617 194-712): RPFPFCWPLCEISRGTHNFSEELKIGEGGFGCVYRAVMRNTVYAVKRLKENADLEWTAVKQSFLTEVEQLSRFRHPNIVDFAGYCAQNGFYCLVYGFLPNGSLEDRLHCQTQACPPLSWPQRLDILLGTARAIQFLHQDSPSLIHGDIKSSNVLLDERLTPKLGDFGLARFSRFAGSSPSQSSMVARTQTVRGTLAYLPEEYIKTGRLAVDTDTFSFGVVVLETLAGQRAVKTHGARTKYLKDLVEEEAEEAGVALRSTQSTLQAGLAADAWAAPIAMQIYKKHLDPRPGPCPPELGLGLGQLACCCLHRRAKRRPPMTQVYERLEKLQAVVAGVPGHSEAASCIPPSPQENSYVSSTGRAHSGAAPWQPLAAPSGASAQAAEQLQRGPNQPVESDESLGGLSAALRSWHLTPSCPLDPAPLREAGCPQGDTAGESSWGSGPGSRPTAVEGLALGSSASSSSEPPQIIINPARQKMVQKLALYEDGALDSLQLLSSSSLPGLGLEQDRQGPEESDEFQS

IC50 [1] | IC50 (IRAK4) | SMILES | IC50 [2]
100 to 1000 nM | < 100 nM | Cn1cc(-c2cccc(-c3ncc(-c4cnn(C)c4)c(N[C@H]4CCC[C@@H]4O)n3)c2)cn1 (racemic) [Example 94] | 1000 to 5000 nM
100 to 1000 nM |  | Cn1cc(-c2cccc(-c3ncc(-c4ccn(C)n4)c(O[C@@H]4CCC[C@@H](N)[C@@H]4O)n3)c2)cn1 [Example 132] | 100 to 1000 nM
100 to 1000 nM |  | Cc1nnc(-c2cnc(-c3cccc(-c4cnn(C)c4)c3)nc2NC2CCN(S(C)(=O)=O)CC2)s1 [Example 151] | 100 to 1000 nM
100 to 1000 nM |  | Cn1cc(-c2cccc(-c3ncc(-c4cnn(C)c4)c(N[C@H]4CCN(S(C)(=O)=O)C4)n3)c2)cn1 [Example 170] | 1000 to 5000 nM
> 5000 nM | 100 to 1000 nM | Cn1cc(-c2cccc(-c3ncc(-c4cnn(C)c4)c(N4CC5CNCC5C4)n3)c2)cn1 (centres unmarked) [Example 191] | 
1000 to 5000 nM | < 100 nM | Cc1nnc(-c2cnc(-c3cccc(-c4cnn(C)c4)c3)nc2NCC2CN(S(C)(=O)=O)C2)s1 [Example 192] | 
> 5000 nM | 100 to 1000 nM | Cn1cc(-c2cccc(-c3ncc(-c4cnn(C)c4)c(N[C@H]4C[C@H](N)C4)n3)c2)cn1 [Example 197] | 
1000 to 5000 nM | < 100 nM | CC(=O)NCC1CCC(Nc2nc(-c3cccc(-c4cnn(C)c4)c3)ncc2-c2cnn(C)c2)CC1 (centres unmarked) [Example 198] | 
1000 to 5000 nM | 100 to 1000 nM | Cn1cc(-c2cccc(-c3ncc(-c4cnn(C)c4)c(NCC4CCCC4N)n3)c2)cn1 (centres unmarked) [Example 200] | 
1000 to 5000 nM | < 100 nM | Cn1cc(-c2cccc(-c3ncc(-c4cnn(C)c4)c(NC4CCC(CNS(C)(=O)=O)CC4)n3)c2)cn1 (centres unmarked) [Example 201] | 
1000 to 5000 nM | 100 to 1000 nM | CC(=O)N[C@H]1C[C@H](Nc2nc(-c3cccc(-c4cnn(C)c4)c3)ncc2-c2cnn(C)c2)C1 [Example 202] | 
1000 to 5000 nM | 100 to 1000 nM | Cn1cc(-c2cccc(-c3ncc(-c4cnn(C)c4)c(NCC4CCCC4NS(C)(=O)=O)n3)c2)cn1 (centres unmarked) [Example 203] | 
100 to 1000 nM | < 100 nM | CC(=O)NC1CCC(Nc2nc(-c3cccc(-c4cnn(C)c4)c3)ncc2-c2nnc(C)s2)CC1 (centres unmarked) [Example 205] | 
> 5000 nM | 100 to 1000 nM | CC(=O)NC[C@H]1C[C@H](Nc2nc(-c3cccc(-c4cnn(C)c4)c3)ncc2-c2cnn(C)c2)C1 [Example 212, N-(3-{5-(1-Methyl-1H-pyrazol-4-yl)-2-[3-(1-methyl-1H-pyrazol-4-yl)-phenyl]-pyrimidin-4-ylamino}-cyclobutylmethyl)-acetamide] | 
1000 to 5000 nM | 100 to 1000 nM | Cn1cc(-c2cccc(-c3ncc(-c4cnn(C)c4)c(N4CCC(O)C4)n3)c2)cn1 (centres unmarked) [Example 218] | 
100 to 1000 nM | < 100 nM | Cn1cc(-c2cccc(-c3ncc(-c4cnn(C)c4)c(N4CCCC(CO)C4)n3)c2)cn1 (centres unmarked) [Example 220] | 
100 to 1000 nM | 100 to 1000 nM | CN(CCC#N)c1nc(-c2cccc(-c3cnn(C)c3)c2)ncc1-c1cnn(C)c1 [Example 222] | 
100 to 1000 nM | < 100 nM | Cn1cc(-c2cccc(-c3ncc(-c4cnn(C)c4)c(NC(C)(C)C)n3)c2)cn1 [Example 223] | 
1000 to 5000 nM | < 100 nM | Cn1cc(-c2cccc(-c3ncc(-c4cnn(C)c4)c(NC[C@@H]4CCCC[C@H]4O)n3)c2)cn1 [Example 224] | 
> 5000 nM | 100 to 1000 nM | Cn1cc(-c2cccc(-c3ncc(-c4cnn(C)c4)c(N4CC(O)C4)n3)c2)cn1 [Example 226] | 
100 to 1000 nM | < 100 nM | Cn1cc(-c2cccc(-c3ncc(-c4cnn(C)c4)c(NCCC4(O)CCCC4)n3)c2)cn1 [Example 227] | 
> 5000 nM | 1000 to 5000 nM | Cn1cc(-c2cccc(-c3ncc(-c4cnn(C)c4)c(N4CCC(CCO)C4)n3)c2)cn1 (centres unmarked) [Example 228] | 
> 5000 nM | 100 to 1000 nM | Cn1cc(-c2cccc(-c3ncc(-c4cnn(C)c4)c(NCC4CCNCC4F)n3)c2)cn1 (centres unmarked) [Example 229] | 

IC50 [1] | IC50 (IRAK4) | SMILES | IC50 [2]
> 5000 nM | 1000 to 5000 nM | Cn1cc(-c2cccc(-c3ncc(-c4cnn(C)c4)c(N4CCC[C@H]4CO)n3)c2)cn1 [Example 230] | 
> 5000 nM | 1000 to 5000 nM | Cn1cc(-c2cccc(-c3ncc(-c4cnn(C)c4)c(NCC4(F)CCNCC4)n3)c2)cn1 [Example 231] | 
100 to 1000 nM | < 100 nM | COC(=O)[C@@H]1CCC[C@H](Nc2nc(-c3cccc(-c4cnn(C)c4)c3)ncc2-c2cnn(C)c2)C1 [Example 232] | 
1000 to 5000 nM | < 100 nM | Cn1cc(-c2cccc(-c3ncc(-c4cnn(C)c4)c(NCC4CCN(S(C)(=O)=O)CC4F)n3)c2)cn1 (centres unmarked) [Example 234] | 
1000 to 5000 nM | 100 to 1000 nM | CC(=O)N1CCC(CNc2nc(-c3cccc(-c4cnn(C)c4)c3)ncc2-c2cnn(C)c2)C(F)C1 (centres unmarked) [Example 235] | 
1000 to 5000 nM | 100 to 1000 nM | Cn1cc(-c2cccc(-c3ncc(-c4cnn(C)c4)c(NCC4(F)CCN(S(C)(=O)=O)CC4)n3)c2)cn1 [Example 236] | 
1000 to 5000 nM | 100 to 1000 nM | CC(=O)N1CCC(F)(CNc2nc(-c3cccc(-c4cnn(C)c4)c3)ncc2-c2cnn(C)c2)CC1 [Example 237] | 
> 5000 nM | 100 to 1000 nM | Cn1cc(-c2cccc(-c3ncc(-c4cnn(C)c4)c(NCC4(O)CCNCC4)n3)c2)cn1 [Example 240] | 
1000 to 5000 nM | 100 to 1000 nM | Cn1cc(-c2cccc(-c3ncc(-c4cnn(C)c4)c(N4CC[C@@H](N)C4)n3)c2)cn1 [Example 241] | 
> 5000 nM | 1000 to 5000 nM | CC(=O)N[C@@H]1CCN(c2nc(-c3cccc(-c4cnn(C)c4)c3)ncc2-c2cnn(C)c2)C1 [Example 246] | 
1000 to 5000 nM | 100 to 1000 nM | Cn1cc(-c2cccc(-c3ncc(-c4cnn(C)c4)c(N4CC[C@@H](NS(C)(=O)=O)C4)n3)c2)cn1 [Example 247] | 
1000 to 5000 nM | 100 to 1000 nM | Cn1cc(-c2cccc(-c3ncc(-c4cnn(C)c4)c(NCC4(O)CCN(S(C)(=O)=O)CC4)n3)c2)cn1 [Example 249] | 
1000 to 5000 nM | 100 to 1000 nM | Cn1cc(-c2cccc(-c3ncc(-c4cnn(C)c4)c(N4CCC(NS(C)(=O)=O)CC4)n3)c2)cn1 [Example 250] | 
> 5000 nM | 1000 to 5000 nM | Cn1cc(-c2cccc(-c3ncc(-c4cnn(C)c4)c(NCCC4CCCCN4)n3)c2)cn1 (centres unmarked) [Example 251] | 
100 to 1000 nM | < 100 nM | Cn1cc(-c2cccc(-c3ncc(-c4cnn(C)c4)c(NCC4(N)CCCCC4)n3)c2)cn1 [Example 252] | 
100 to 1000 nM | 100 to 1000 nM | CC(=O)N1CCC(Nc2nc(-c3cccc(-c4cnn(C)c4)c3)ncc2-c2cnn(C)c2)CC1 [Example 255] | 
> 5000 nM | 100 to 1000 nM | CC(=O)N1CCCCC1CCNc1nc(-c2cccc(-c3cnn(C)c3)c2)ncc1-c1cnn(C)c1 (centres unmarked) [Example 258] | 
> 5000 nM | 100 to 1000 nM | Cn1cc(-c2cccc(-c3ncc(-c4cnn(C)c4)c(NCCC4CCCCN4S(C)(=O)=O)n3)c2)cn1 (centres unmarked) [Example 259] | 
1000 to 5000 nM | 100 to 1000 nM | Cn1cc(-c2cccc(-c3ncc(-c4cnn(C)c4)c(N4CCC(CO)C4)n3)c2)cn1 (centres unmarked) [Example 261] | 
> 5000 nM | 1000 to 5000 nM | Cn1cc(-c2cccc(-c3ncc(-c4cnn(C)c4)c(N[C@H]4CC[C@@H](N5CCOCC5)CC4)n3)c2)cn1 [Example 263] | 
> 5000 nM | 1000 to 5000 nM | Cn1cc(-c2cccc(-c3ncc(-c4cnn(C)c4)c(N4CCC(CN)C4)n3)c2)cn1 (centres unmarked) [Example 264] | 
> 5000 nM | 100 to 1000 nM | CC(Nc1nc(-c2cccc(-c3cnn(C)c3)c2)ncc1-c1cnn(C)c1)C1CCN(S(C)(=O)=O)CC1 (centres unmarked) [Example 274] | 
> 5000 nM | 100 to 1000 nM | CC(=O)N1CCC(O)(CNc2nc(-c3cccc(-c4cnn(C)c4)c3)ncc2-c2cnn(C)c2)CC1 [Example 277] | 

SMILES | IC50 [1] | IC50 (IRAK4) | IC50 [2]
Cn1cc(-c2cccc(-c3ncc(-c4cnn(C)c4)c(NC4CC5CCC4N5)n3)c2)cn1 (centres unmarked) [Example 193] | > 5000 nM | 100 to 1000 nM | 
